Values of other authors, collected in US20150024025A1, “ALIGNED N[…] AXONAL RE[…] SPINAL CORD INJURY OR SURGERY” (THE UAB RESEARCH FOUNDATION, priority 2012, published 2015).

Test system: spinal cord injury

chondroitinase ABC
axonal repair and regeneration in vivo after spinal cord injury: promotes axonal repair and regeneration
